Patent US10258629B2, “Liposomal drug encapsulation” (priority 2014, dated 2019)

Experiments:
[1] = 0.8 mg/Kg injected as free staurosporine; 'would very likely be'; cited from earlier work
[2] = Reverse pH gradient encapsulation efficiency of staurosporine in liposomes
Experimental: The dried lipid film was hydrated with a buffer containing ammonium phosphate, ammonium sulfate, sodium phosphate, or sodium sulfate (300 mM, 7.4) and vortexed for 1 minute to remove any adhering lipid film. Sonication in a bath sonicator (ULTRAsonik 28X) for 1 minute at room temperature produced multilamellar vesicles (MLV). ME-Vs were then sonicated with a Ti-probe (Branson 450 sonifier) for 2 minutes to produce small unilamellar vesicles (SUV), indicated by the formation of a translucent solution. Extrusion through a 100 nm pore size polycarbonate filter (Whatman) was the final stage of a stepwise series of extrusions to reduce SUV size.
The prepared liposomes with internal buffer at pH 3 or 7.4 were passed through a Sephadex G-50 column equilibrated with HEPES buffered saline (FIBS; 20 mM HEPES, 150 mM NaCl, pH 7.4) to exchange the external buffer.

[3] = Acute toxicity of free staurosporine; settings: 5 mg/Kg free staurosporine
U87 cells = assay: In vivo anti-tumor activity against very large U87 flank tumors (FIG. 9); settings: treatment over two weeks

SMILES: CN[C@@H]1C[C@H]2O[C@@](C)([C@@H]1OC)n1c3ccccc3c3c4c(c5c6ccccc6n2c5c31)C(=O)NC4 [free staurosporine, (9S, 10R, 11R, 13R)-2,3,10,11,12,13-Hexahydro-10-methoxy-9-methyl-11-(methylamino)-9,13-epoxy-1H,9H-diindolo[1,2,3-gh:3′,2′r-lm]pyrrolo[3,4-j][1,7]benzodiazonin-1-one]
- Fraction cleared after only one circulatory pass [1]: 99%
- Increase of encapsulation when a pH gradient existed ([2]; internal buffer pH 7.4 versus pH 3, external buffer constant at pH 3): 14 fold
- Encapsulation rate ([2]; internal pH 5, external pH 7.4): very low encapsulation rates
- Liposomal loading capacity, peak value ([2]; lipid to drug ratio 11.11 (mole/mole)): 70%
- Acute lethality [3]: acutely lethal
- Body weight (U87 cells): body weight did decline
- Tumor growth (U87 cells; tumors 180-200 mm^3 at start, relative to PBS, p<0.004 for liposomal): no demonstrable effect
